Measurements taken from the METLIN SMRT retention time set (Domingo-Almenara et al. 2019).

Experiment: gradient 5% acetonitrile 3 min, to 50% in 2 min, to 85% in 15 min, held 3 min, 100 µL/min
Conditions: column: Zorbax Extend-C18 2.1 x 50 mm; eluents: water / acetonitrile, 0.1% formic acid
How it was run: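 Pure standards were analyzed in mixtures of ~100 molecules using HPLC coupled to a quadrupole time-of-flight mass spectrometer, in both positive and negative ionization mode. Separation used a Zorbax Extend-C18 column (2.1 × 50 mm, 1.8 μm) at 100 μL/min, with water and acetonitrile each containing 0.1% formic acid. Dead and dwell volumes were 40 μL and 900 μL, and data were collected over 3 months. Retention time was read from computationally picked adduct peaks, each inspected manually.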

| RP-LC retention time | Structure (SMILES) |
| --- | --- |
| 739 s | COC(=O)CNC(=O)N1CCCC1c1ccc(C)cc1 (configuration not stated) |
| 582 s | O=C(Cc1csc(SCc2ccncc2)n1)N1CCN(c2ccccc2)CC1 |
| 797 s | CNC(=O)c1sc(-c2cccc(C)c2)nc1C |
| 646 s | Cc1ccc2c(=O)c3c([nH]c2c1C)CCN(CC(=O)Nc1ccc(F)c(F)c1)C3 |
| 947 s | O=C1NC(=O)[C@@H](c2cn3c4c(cccc24)CCC3)[C@@H]1c1c[nH]c2ccccc12 |
| 671 s | CN1CCn2cc(S(=O)(=O)Nc3ccc(F)cc3F)cc2C1=O |
| 810 s | COc1ccc(S(=O)(=O)N(C)C2CCc3nn(CC4CC4)c(=O)n3CC2)cc1Cl (configuration not stated) |
| 607 s | COc1ccc(-c2nc(CC3CCNC3)no2)cc1 (configuration not stated) |
| 734 s | CCn1c(SCC(=O)N2CCCCC2)nnc1-c1ccc2c(c1)OCCCO2 |
| 555 s | COCCc1noc(C2CN(C(=O)c3cn(C)cn3)C2)n1 |
| 1080 s | Cc1ccccc1S(=O)(=O)N1CCC2(CC1)CC(OCC1CC1)CCO2 (configuration not stated) |
| 713 s | Cc1nc(-c2ccccn2)cc2nn(CC(=O)NCCC(C)C)c(=O)n12 |
| 954 s | Cc1oc2c(c(C)nn2-c2ccccc2)c(=O)c1Cl |
| 562 s | CCc1nc2ncc(-c3ccnc(N4CCN(C)CC4)n3)c(C)n2n1 |
| 688 s | Cc1cccc(-n2ncc(C(=O)N3CCN(c4ccccn4)CC3)c2-n2cccc2)c1 |
| 843 s | COc1ccccc1CNC(=O)C1=C2CCCN2c2ccccc2S1(=O)=O |
| 1280 s | Cc1ccc(-c2cc(C(F)(F)F)on2)cc1S(=O)(=O)N1CCC(C)CC1 |
| 677 s | Cn1c(-c2cccs2)nn(CCNC(=O)c2ccccc2SC(F)F)c1=O |
| 679 s | O=C(NCC1CCCO1)c1cccc(Nc2c(-c3ccccc3)nc3cnccn23)c1 (configuration not stated) |

| RP-LC retention time | Structure (SMILES) |
| --- | --- |
| 738 s | CC(C)(C)NC(=O)Cn1ccn2nc(-c3ccc(F)cc3)c(CO)c2c1=O |
| 968 s | CC(=O)N1CCc2cc(S(=O)(=O)C(C)CC(=O)N3CCN(c4ccc(C)cc4C)CC3)ccc21 (configuration not stated) |
| 794 s | CC(C)N1CCn2cc(S(=O)(=O)Nc3cc(F)cc(F)c3)cc2C1=O |
| 593 s | Cc1ccsc1C(=O)N1C[C@@H]2CCCN3CCC[C@@H]([C@H]23)[C@H]1CCCC(=O)N1CCOCC1 |
| 914 s | O=C(Nc1c2c(nn1-c1cccc(Cl)c1)CSC2)C(=O)N1CCCC1 |
| 646 s | CCn1c(=O)n(CC)c2cc(N3CCCC3)c(NC(=O)NCc3cccc(OC)c3)cc21 |
| 748 s | CCc1ccc(Nc2nc(C(=O)NCCOC)nc3ccccc23)cc1 |
| 662 s | COc1ccc(NC(=O)N2CCCC2c2nncn2C2CCCC2)c(OC)c1 (configuration not stated) |
| 565 s | CN(C)c1cc(C(=O)NC2CC2)c2ccccc2n1 |
| 1040 s | O=C(NC1CCCCCC1)C1CCN(S(=O)(=O)c2cc(-c3noc(C4CC4)n3)cs2)CC1 |
| 878 s | CC(C)N1C(=O)c2cccnc2Sc2cc(NC(=O)c3ccc4c(c3)OCO4)ccc21 |
| 837 s | O=C(NC1CC1)c1ccc(OCC2CCN(C(=O)c3ccc(F)cc3Cl)CC2)cc1 |
| 526 s | COc1ccc(N2C(=O)CCC(C(=O)NCCCN3CCN(C)CC3)C2c2ccc(F)cc2)cc1 (configuration not stated) |
| 790 s | Cc1cc(C(=O)N2CCCCC2)c2c(=O)n(CC(=O)NCCC(C)C)c(=O)n(C)c2n1 |
| 890 s | Cc1csc(-c2cc(S(=O)(=O)N3CCCCC3)cn2CC(=O)N2CCCC2)n1 |
| 621 s | COCCc1noc(C2CN(C(=O)C(C)C)C2)n1 |
| 645 s | CN1C(=O)CCc2cc(NC(=O)c3ccnn3C)ccc21 |
| 633 s | Cc1nnc(C2CCCN(C(=O)Cn3c(=O)oc4ccccc43)C2)s1 (configuration not stated) |
